The text below walks through data of patent publication US12091426B2, “Bifunctional degraders of hematopoietic progenitor kinase and therapeutic uses thereof” (Nurix Therapeutics, Inc., priority 2021, dated 2024).

A word on the DC50: it is the concentration at which degradation of the target reaches its halfway point. The term Dmax denotes the greatest extent of degradation seen.

The target of the assay is T1, HPK1 (Homo sapiens, UniProt Q92918).
T1 construct: A HiBiT tag was introduced by CRISPR on the N terminus of HPK1 in Jurkat cells; host or cells: Jurkat cells (ATCC TIB-152), monoclonal line with CRISPR knock-in of HiBiT at the endogenous HPK1 locus
The assay can be described thus: HPK1 Cellular HiBit Degradation Assay. Format: cell-based. The conditions noted are these: HiBiT HPK1 Jurkat cells, 24 hrs; for DC50: concentration at which 50% of HPK1 was remaining, read-out: DC50 Category; for Dmax: Jurkat, maximum degradation vs DMSO vehicle control, read-out: Dmax Category. As for the experimental part:
HPK1 Cellular HiBit Degradation Assay
A HiBiT tag was introduced by CRISPR on the N terminus of HPK1 in Jurkat cells (ATCC® TIB-152) to allow quantitation of HPK1 protein levels in a monoclonal human cell line. Cells were plated at 1×10^6 cells/mL, 30 uL/well (3×10^4 cells/well) in complete RPMI 1640 (10% heat inactivated FBS, 1% L-glutamine) in 384-well assay plates (Corning, cat. no. 3570). HPK1 chimeric targeting molecules (CTMs) were added in an 11 point dilution series (11-point, 3.16-fold) with a final assay concentration range of 10 uM to 0.1 nM. The parental Jurkat cell line, with no HiBiT insertion, was included in the assay as a background control. Cell treated with a DMSO vehicle control was used to determine the maximum signal defining 100% HPK1 in the cell. Cells were incubated for 24 hrs at 37° C./5% CO2. Following incubation, 30 uL of complete Nano-Glo HiBiT Lytic Detection Reagent (Promega cat. no. N3040) was added. Cells were incubated for 10 min at room temperature and luminescence was read on an EnVision plate reader (Perkin Elmer, 0.1 sec per well). Viability was assessed in the same plate using Cell Titer Fluor (Promega) and read on an EnVision plate reader to ensure results were not the effect of cytotoxicity. Percent HPK1 remaining per sample was calculated as follows:
[formula] % HPK1 remaining values were plotted as a function of compound concentration and curves were fit using the Prism (GraphPad) equation “log(inhibitor) vs response−Variable slope (four parameters)”. Dmax values were calculated by identifying the lowest % remaining and subtracting from 100. DC50 values were determined by extrapolating from the curve the concentration at which 50% of HPK1 was remaining based on the DMSO control.
HiBiT HPK1 Jurkat cell lines were used to evaluate the total protein levels of HPK1 in a robust human cellular high throughput format. The level of HPK1 remaining following treatment with HPK1 CTMs is reported as Dmax (maximum degradation) achieved at 24 hours when compared to vehicle treated controls. […] These decreases were not a result of cytotoxicity measured by a viability assessment.
In general terms: The HiBiT peptide binds its large partner to form an active luciferase.

Molecules are shown by their SMILES. Bounds are passed on as bounds.

T1 sequence (Q92918 whole entry): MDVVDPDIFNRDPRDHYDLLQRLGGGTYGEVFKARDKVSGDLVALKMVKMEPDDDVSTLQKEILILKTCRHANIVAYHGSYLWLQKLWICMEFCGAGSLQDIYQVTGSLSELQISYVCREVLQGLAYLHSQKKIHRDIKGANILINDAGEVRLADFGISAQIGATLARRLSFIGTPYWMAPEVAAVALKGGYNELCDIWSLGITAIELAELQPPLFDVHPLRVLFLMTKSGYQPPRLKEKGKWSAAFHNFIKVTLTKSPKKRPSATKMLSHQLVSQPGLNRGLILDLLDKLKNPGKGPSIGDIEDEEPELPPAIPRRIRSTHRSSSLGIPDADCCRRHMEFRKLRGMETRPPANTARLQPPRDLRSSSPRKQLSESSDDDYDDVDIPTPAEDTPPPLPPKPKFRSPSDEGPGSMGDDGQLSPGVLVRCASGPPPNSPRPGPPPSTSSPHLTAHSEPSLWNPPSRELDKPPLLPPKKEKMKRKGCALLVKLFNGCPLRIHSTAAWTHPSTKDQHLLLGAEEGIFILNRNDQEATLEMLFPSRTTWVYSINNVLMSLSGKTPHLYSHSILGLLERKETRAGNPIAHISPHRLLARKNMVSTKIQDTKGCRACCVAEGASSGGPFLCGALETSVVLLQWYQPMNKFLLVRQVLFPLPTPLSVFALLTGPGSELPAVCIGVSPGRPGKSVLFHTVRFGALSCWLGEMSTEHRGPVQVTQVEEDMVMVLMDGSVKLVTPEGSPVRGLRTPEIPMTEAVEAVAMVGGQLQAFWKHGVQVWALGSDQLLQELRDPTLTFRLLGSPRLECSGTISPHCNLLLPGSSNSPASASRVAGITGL

As for `CC(C)n1cnc2cc(-c3ccc4c(c3)N([C@H]3C[C@@H](N5CCCCC5)C3)C(=O)C43CCN(C(=O)[C@H]4CC[C@@H](C(=O)N5CCN(c6ccc7c(c6)C(=O)N(C6CCC(=O)NC6=O)C7=O)CC5)CC4)CC3)nc(Nc3ccccc3F)c21` (mixture of isomers) [Example 31, 2-[(3RS)-2,6-dioxopiperidin-3-yl]-5-{4-[(1S,4s)-4-[(6-{4-[(2-fluorophenyl)amino]-3-(propan-2-yl)-3H-imidazo[4,5-c]pyridin-6-yl}-2-oxo-1-[(1S,3S)-3-(piperidin-1-yl)cyclobutyl]-1,2-dihydrospiro[indole-3,4′-piperidin]-1′-yl)carbonyl]cyclohexanecarbonyl]piperazin-1-yl}-2,3-dihydro-1H-isoindole-1,3-dione], the 50% degradation concentration (DC50) lay in the range of 100 to 500 nM and the Dmax is 70 to 85%.
Consider `CC(C)n1cnc2cc(-c3ccc4c(c3)N([C@H]3C[C@@H](N5CCCCC5)C3)C(=O)C43CCN(C(=O)[C@H]4CCN(C(=O)C5CCN(c6ccc(C7CCC(=O)NC7=O)cn6)CC5)C4)CC3)nc(NC3CC3)c21` (mixture of isomers) [Example 32, (3RS)-3-(6-{4-[(3S)-3-({6-[4-(cyclopropylamino)-3-(propan-2-yl)-3H-imidazo[4,5-c]pyridin-6-yl]-2-oxo-1-[(1S,3S)-3-(piperidin-1-yl)cyclobutyl]-1,2-dihydrospiro[indole-3,4′-piperidin]-1′-yl}carbonyl)pyrrolidine-1-carbonyl]piperidin-1-yl}pyridin-3-yl)piperidine-2,6-dione], for which the DC50 fell in the range of 100 to 500 nM and the Dmax lay within 50 to 70%.
Take `CC(C)n1cnc2cc(-c3ccc4c(c3)N([C@H]3C[C@@H](N5CCCCC5)C3)C(=O)C43CCN(C(=O)[C@H]4CCN(C(=O)C5CCN(c6ccc(C7CCC(=O)NC7=O)cn6)CC5)C4)CC3)nc(Nc3ccccc3F)c21` (mixture of isomers) [Example 33, (3RS)-3-(6-{4-[(3S)-3-[(6-{4-[(2-fluorophenyl)amino]-3-(propan-2-yl)-3H-imidazo[4,5-c]pyridin-6-yl}-2-oxo-1-[(1S,3S)-3-(piperidin-1-yl)cyclobutyl]-1,2-dihydrospiro[indole-3,4′-piperidin]-1′-yl)carbonyl]pyrrolidine-1-carbonyl]piperidin-1-yl}pyridin-3-yl)piperidine-2,6-dione]: the DC50 is less than 100 nM and the Dmax was in the range of 70 to 85%.
On to `CC(C)n1cnc2cc(-c3ccc4c(c3)N([C@H]3C[C@@H](N5CCCCC5)C3)C(=O)C43CCN(C(=O)[C@H]4CCN(C(=O)C5CCN(c6ccc(C7CCC(=O)NC7=O)cn6)CC5)C4)CC3)nc(Nc3ccncc3F)c21` (mixture of isomers) [Example 34, (3RS)-3-(6-{4-[(3S)-3-[(6-{4-[(3-fluoropyridin-4-yl)amino]-3-(propan-2-yl)-3H-imidazo[4,5-c]pyridin-6-yl}-2-oxo-1-[(1S,3S)-3-(piperidin-1-yl)cyclobutyl]-1,2-dihydrospiro[indole-3,4′-piperidin]-1′-yl)carbonyl]pyrrolidine-1-carbonyl]piperidin-1-yl}pyridin-3-yl)piperidine-2,6-dione], for which the DC50 lay within 100 to 500 nM and the Dmax lay in the range of 50 to 70%.
In the case of `CC(C)n1cnc2cc(-c3ccc4c(c3)N([C@H]3C[C@@H](N5CCCCC5)C3)C(=O)C43CCN(C(=O)C[C@@H]4CCN(C(=O)[C@H]5CC[C@@H](Nc6cccc7c6C(=O)N(C6CCC(=O)NC6=O)C7=O)CC5)C4)CC3)nc(NC3CC3)c21` (mixture of isomers) [Example 35, 2-[(3RS)-2,6-dioxopiperidin-3-yl]-4-{[(1R,4R)-4-[(3S)-3-(2-{6-[4-(cyclopropylamino)-3-(propan-2-yl)-3H-imidazo[4,5-c]pyridin-6-yl]-2-oxo-1-[(1S,3S)-3-(piperidin-1-yl)cyclobutyl]-1,2-dihydrospiro[indole-3,4′-piperidin]-1′-yl}-2-oxoethyl)pyrrolidine-1-carbonyl]cyclohexyl]amino}-2,3-dihydro-1H-isoindole-1,3-dione], the half-maximal degradation concentration (DC50) was 500 to 1000 nM and the Dmax lay within 50 to 70%.
For `Cc1cc(F)c(Nc2nc(-c3ccc4c(c3)N([C@H]3C[C@@H](N5CCCCC5)C3)C(=O)C43CCN(C(=O)C4=CCN(C(=O)[C@H]5CC[C@H](Nc6cccc7c6C(=O)N(C6CCC(=O)NC6=O)C7=O)CC5)CC4)CC3)cc3ncn(C(C)C)c23)cc1C(=O)NC(C)C` (mixture of isomers) [Example 36, 4-fluoro-2-methyl-5-{[6-(2-oxo-1′-{1-[(1R,4R)-4-({2-[(3RS)-2,6-dioxopiperidin-3-yl]-1,3-dioxo-2,3-dihydro-1H-isoindol-4-yl}amino)cyclohexanecarbonyl]-1,2,3,6-tetrahydropyridine-4-carbonyl}-1-[(1S,3S)-3-(piperidin-1-yl)cyclobutyl]-1,2-dihydrospiro[indole-3,4′-piperidin]-6-yl)-3-(propan-2-yl)-3H-imidazo[4,5-c]pyridin-4-yl]amino}-N-(propan-2-yl)benzamide] the same measures were 100 to 500 nM and 50 to 70%.
Regarding `Cc1cc(F)c(Nc2nc(-c3ccc4c(c3)N([C@H]3C[C@@H](N5CCCCC5)C3)C(=O)C43CCN(C(=O)C4=CCN(C(=O)C5CCN(c6ccc7c(c6)C(=O)N(C6CCC(=O)NC6=O)C7=O)CC5)CC4)CC3)cc3ncn(C(C)C)c23)cc1C(=O)NC(C)C` (mixture of isomers) [Example 37, 5-[(6-{1′-[1-(1-{2-[(3RS)-2,6-dioxopiperidin-3-yl]-1,3-dioxo-2,3-dihydro-1H-isoindol-5-yl}piperidine-4-carbonyl)-1,2,3,6-tetrahydropyridine-4-carbonyl]-2-oxo-1-[(1S,3S)-3-(piperidin-1-yl)cyclobutyl]-1,2-dihydrospiro[indole-3,4′-piperidin]-6-yl}-3-(propan-2-yl)-3H-imidazo[4,5-c]pyridin-4-yl)amino]-4-fluoro-2-methyl-N-(propan-2-yl)benzamide], the DC50 lay within 100 to 500 nM and the Dmax was in the range of 50 to 70%.
For the molecule `CC(C)n1cnc2cc(-c3ccc4c(c3)N([C@H]3C[C@@H](N5CCCCC5)C3)C(=O)C43CCN(C(=O)C4C5CN(C(=O)C6CCN(c7ccc(C8CCC(=O)NC8=O)cn7)CC6)CC54)CC3)nc(NC3CC3)c21` (mixture of isomers) [Example 38, (3RS)-3-(6-{4-[6-({6-[4-(cyclopropylamino)-3-(propan-2-yl)-3H-imidazo[4,5-c]pyridin-6-yl]-2-oxo-1-[(1S,3S)-3-(piperidin-1-yl)cyclobutyl]-1,2-dihydrospiro[indole-3,4′-piperidin]-1′-yl}carbonyl)-3-azabicyclo[3.1.0]hexane-3-carbonyl]piperidin-1-yl}pyridin-3-yl)piperidine-2,6-dione], the DC50 was 100 to 500 nM and the Dmax lay within 50 to 70%.
As to `CC(C)n1cnc2cc(-c3ccc4c(c3)N([C@H]3C[C@@H](N5CCCCC5)C3)C(=O)C43CCN(C(=O)C4C5CN(C(=O)C6CCN(c7ccc(C8CCC(=O)NC8=O)cn7)CC6)CC54)CC3)nc(Nc3ccccc3F)c21` (mixture of isomers) [Example 39, (3RS)-3-[6-(4-{6-[(6-{4-[(2-fluorophenyl)amino]-3-(propan-2-yl)-3H-imidazo[4,5-c]pyridin-6-yl}-2-oxo-1-[(1S,3S)-3-(piperidin-1-yl)cyclobutyl]-1,2-dihydrospiro[indole-3,4′-piperidin]-1′-yl)carbonyl]-3-azabicyclo[3.1.0]hexane-3-carbonyl}piperidin-1-yl)pyridin-3-yl]piperidine-2,6-dione], the DC50 is less than 100 nM and the Dmax was more than 85%.
